Source: paper PMC4301037, “Identification and Structure–Function Analysis of Subfamily Selective G Protein-Coupled Receptor Kinase Inhibitors” (ACS Chemical Biology, 2014)
Read-outs that look alike come from different tables or passages of the source.

Key:
GRK1 [1] = molecular target: T1, GRK1 (Bos taurus, UniProt P28327); assay: DSF retest (confirmation), GRK1; assay type: binding, bovine; details: for GRK1 Tm: 0.2 mg mL^–1 kinase; for GRK1 ΔTm: relative to intrinsic melting point of the kinase
T1 construct: Bovine GRK1_1–535, bovine and human GRK2S670A; made in house
T1 sequence (P28327 1-535): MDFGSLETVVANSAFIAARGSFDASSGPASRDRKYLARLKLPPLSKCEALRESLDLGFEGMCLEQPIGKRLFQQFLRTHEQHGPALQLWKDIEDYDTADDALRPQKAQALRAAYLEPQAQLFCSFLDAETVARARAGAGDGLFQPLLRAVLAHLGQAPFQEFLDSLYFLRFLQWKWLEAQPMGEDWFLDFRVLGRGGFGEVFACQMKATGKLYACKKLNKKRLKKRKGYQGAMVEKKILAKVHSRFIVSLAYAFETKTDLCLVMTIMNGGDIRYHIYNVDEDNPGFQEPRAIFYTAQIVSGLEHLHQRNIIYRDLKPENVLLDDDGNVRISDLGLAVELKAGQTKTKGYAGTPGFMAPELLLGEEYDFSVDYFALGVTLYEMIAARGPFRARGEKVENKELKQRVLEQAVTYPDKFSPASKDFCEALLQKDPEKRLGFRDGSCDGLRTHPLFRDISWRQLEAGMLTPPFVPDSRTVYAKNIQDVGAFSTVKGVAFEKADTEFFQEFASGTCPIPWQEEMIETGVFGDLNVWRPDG

GRK2 [2] = molecular target: T2, GRK2 (Bos taurus, UniProt P21146, S670A); assay: In vitro phosphorylation assay (tubulin, 5 μM ATP), GRK2; assay type: biochemical, bovine; details: for IC50: read-out: GRK2 log IC50 (converted)
T2 construct: made in house
T2 sequence (P21146 1-689 S670A): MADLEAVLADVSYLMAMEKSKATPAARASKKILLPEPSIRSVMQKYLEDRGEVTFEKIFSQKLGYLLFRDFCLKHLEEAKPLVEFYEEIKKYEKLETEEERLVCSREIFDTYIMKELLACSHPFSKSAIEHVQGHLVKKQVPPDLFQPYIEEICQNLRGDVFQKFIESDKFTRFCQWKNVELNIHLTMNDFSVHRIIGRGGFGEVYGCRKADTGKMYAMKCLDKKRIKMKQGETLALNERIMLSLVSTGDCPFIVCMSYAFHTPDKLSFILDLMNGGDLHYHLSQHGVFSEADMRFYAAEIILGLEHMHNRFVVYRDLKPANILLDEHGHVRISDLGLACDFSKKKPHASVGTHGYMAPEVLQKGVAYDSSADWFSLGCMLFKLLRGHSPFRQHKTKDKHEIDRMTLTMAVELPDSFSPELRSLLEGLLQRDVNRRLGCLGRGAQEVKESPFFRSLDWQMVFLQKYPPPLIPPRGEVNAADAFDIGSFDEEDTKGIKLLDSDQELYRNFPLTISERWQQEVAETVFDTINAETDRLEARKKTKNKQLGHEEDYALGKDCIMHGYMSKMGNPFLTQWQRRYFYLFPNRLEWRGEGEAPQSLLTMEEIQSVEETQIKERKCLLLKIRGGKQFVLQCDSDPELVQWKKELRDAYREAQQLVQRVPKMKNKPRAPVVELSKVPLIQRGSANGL

GRK1 [3] = molecular target: T1, GRK1; assay: In vitro phosphorylation assay (tubulin, 5 μM ATP), GRK1; assay type: biochemical, bovine
GRK1, 2, and 5 and PKA = assay: Ssel selectivity score calculated from inhibition of GRK1, 2, 5 and PKA; details: selectivity score from inhibition of GRK1, 2, 5 and PKA; <0.5 selective
PKA = molecular target: T3, PKA (Mus musculus, UniProt P05132); assay: PKA inhibition assay (ADP-Glo, CREBtide, 100 μM ATP); assay type: biochemical
T3 construct: His tag (inferred from pET15b vector and Ni-NTA column) (N); host or cells: E. coli Rosetta(DE3)pLysS

protein kinase A (PKA) = molecular target: T4, protein kinase A (PKA) (Mus musculus, UniProt P05132); assay: DSF retest (confirmation), PKA; assay type: binding; details: for PKA Tm: 0.2 mg mL^–1 kinase; for PKA ΔTm: relative to intrinsic melting point of the kinase
T4 construct: His tag (inferred from pET15b vector and Ni-NTA column) (N); host or cells: E. coli Rosetta(DE3)pLysS
Protocol: Fourteen compounds (Figure 1a–c), including all GRK2 hits except staurosporine, and the most stabilizing pyrrolopyrimidine-containing compounds were obtained from GSK and retested using DSF on GRKs representing each vertebrate subfamily (GRK1, 2, and 5) (Table 1). […] The ability of these compounds to shift the Tm of the related AGC family kinase member protein kinase A (PKA) was also assessed (Table 1). In no case was ΔTm greater for PKA than for one of the tested GRKs. […]. There was no correlation for GRK1 (Figure 2c).
DSF was conducted using a ThermoFluor plate reader (Johnson & Johnson) in a buffer containing 20 mM HEPES, pH 7.0, 5 mM MgCl2, 2 mM DTT, and 1 mM CHAPS with 0.2 mg mL^–1 final concentration of GRK or PKA and 100 μM 1-anilinonaphthalene-8-sulfonic acid.[14]

224 kinases = system: 224 kinases; design: method as in ChEMBL database; details: ref ChEMBL database; cited from earlier work
bovine GRK5 = molecular target: T5, bovine GRK5 (Bos taurus, UniProt P43249); assay: Primary DSF inhibitor screen, GRK5; assay type: binding; details: for rank in the primary screen, GRK5: rank ordering of compounds in primary DSF screen
T5 construct: when using full-length kinases as the receptor[37] instead of isolated kinase domains; made in house
T5 sequence (P43249 whole entry, the tested form may be a part): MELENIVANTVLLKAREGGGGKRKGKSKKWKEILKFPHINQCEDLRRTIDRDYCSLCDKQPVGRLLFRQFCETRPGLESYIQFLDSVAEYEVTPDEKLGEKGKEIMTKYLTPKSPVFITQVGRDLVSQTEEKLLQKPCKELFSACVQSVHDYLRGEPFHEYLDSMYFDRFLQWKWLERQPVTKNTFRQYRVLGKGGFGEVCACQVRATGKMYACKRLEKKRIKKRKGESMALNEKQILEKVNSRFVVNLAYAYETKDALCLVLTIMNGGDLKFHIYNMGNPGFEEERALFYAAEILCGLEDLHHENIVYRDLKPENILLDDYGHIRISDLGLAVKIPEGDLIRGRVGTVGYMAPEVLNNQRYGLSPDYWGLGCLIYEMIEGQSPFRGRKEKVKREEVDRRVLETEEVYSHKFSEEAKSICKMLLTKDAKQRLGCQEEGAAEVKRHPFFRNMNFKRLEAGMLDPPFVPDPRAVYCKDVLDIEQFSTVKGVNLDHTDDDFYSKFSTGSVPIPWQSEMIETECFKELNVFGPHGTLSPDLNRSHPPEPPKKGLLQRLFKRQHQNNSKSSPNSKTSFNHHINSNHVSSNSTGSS

GRK2 [4] = molecular target: T6, GRK2 (Homo sapiens, UniProt P25098, S670A); assay: DSF retest (confirmation), GRK2; assay type: binding; details: for GRK2 Tm: 0.2 mg mL^–1 kinase; for GRK2 ΔTm: relative to intrinsic melting point of the kinase
T6 construct: made in house
T6 sequence (P25098 1-689 S670A): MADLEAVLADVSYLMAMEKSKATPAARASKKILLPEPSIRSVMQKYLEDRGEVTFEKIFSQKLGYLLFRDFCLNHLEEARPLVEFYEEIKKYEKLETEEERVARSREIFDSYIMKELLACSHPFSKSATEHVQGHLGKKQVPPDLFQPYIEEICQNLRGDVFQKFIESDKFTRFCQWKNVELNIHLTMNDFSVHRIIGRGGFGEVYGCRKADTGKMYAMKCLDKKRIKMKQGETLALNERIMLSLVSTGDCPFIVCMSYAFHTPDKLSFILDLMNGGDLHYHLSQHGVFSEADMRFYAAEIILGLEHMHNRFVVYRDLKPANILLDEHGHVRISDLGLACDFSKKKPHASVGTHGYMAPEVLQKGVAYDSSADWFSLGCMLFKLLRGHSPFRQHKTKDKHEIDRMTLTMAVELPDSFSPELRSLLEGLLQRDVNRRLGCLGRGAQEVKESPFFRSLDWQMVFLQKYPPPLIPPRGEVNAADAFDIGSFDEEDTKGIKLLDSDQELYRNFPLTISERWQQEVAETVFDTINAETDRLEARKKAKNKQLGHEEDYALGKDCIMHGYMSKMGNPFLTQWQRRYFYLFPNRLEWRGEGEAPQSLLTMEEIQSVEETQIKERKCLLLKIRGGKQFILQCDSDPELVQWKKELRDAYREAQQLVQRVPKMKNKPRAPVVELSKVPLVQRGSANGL

GRK5 [5] = molecular target: T7, GRK5 (Bos taurus, UniProt P43249); assay: In vitro phosphorylation assay (tubulin, 5 μM ATP), GRK5; assay type: biochemical, bovine; details: for IC50: read-out: GRK5 log IC50 (converted)
T7 construct: when using full-length kinases as the receptor[37] instead of isolated kinase domains; made in house
T7 sequence (P43249 whole entry, the tested form may be a part): as the sequence (P43249 whole entry, the tested form may be a part) above

GRK5 [6] = molecular target: T7, GRK5; assay: DSF retest (confirmation), GRK5; assay type: binding, bovine; details: for GRK5 Tm: 0.2 mg mL^–1 kinase; for GRK5 ΔTm: relative to intrinsic melting point of the kinase
human GRK2S670A = molecular target: T8, human GRK2S670A (Homo sapiens, UniProt P25098, S670A); assay: Primary DSF (differential scanning fluorimetry) inhibitor screen, GRK2; assay type: binding; details: 10 μM compound; for ΔTm at 10 µM: read-out: ΔTm, primary screen, GRK2
T8 construct: when using full-length kinases as the receptor[37] instead of isolated kinase domains; made in house
T8 sequence (P25098 1-689 S670A): T6 sequence (P25098 1-689 S670A)

[7] = read-out: GRK1 log IC50 (converted)
[8] = logarithm of IC50 (−3.3 corresponds to 0.5 mM, footnote c), 438 nM PKA, 100 μM ATP, CREBtide, read-out: PKA log IC50 (converted)
[9] = 10 μM compound, 2 μM kinase, relative to DMSO control
[10] = 10 μM compound, 2 μM kinase, relative to DMSO control, read-out: ΔTm, primary screen, GRK5
[11] = 2 μM kinase, relative to DMSO control

Row | SMILES | GRK1 Tm (GRK1 [1]) | GRK1 ΔTm (GRK1 [1]) | IC50 (GRK2 [2]) | IC50 (GRK1 [3]; [7]) | IC50 (PKA; [8]) | PKA Tm (protein kinase A (PKA)) | PKA ΔTm (protein kinase A (PKA)) | ΔTm, primary screen, GRK5 (bovine GRK5; [9]) | rank in the primary screen, GRK5 (bovine GRK5; 10 μM compound) | GRK2 Tm (GRK2 [4]) | GRK2 ΔTm (GRK2 [4]) | IC50 (GRK5 [5]) | GRK5 Tm (GRK5 [6]) | GRK5 ΔTm (GRK5 [6]) | GRK2 fold (increase in potency relative to paroxetine) (GRK2 [2]) | ΔTm at 10 µM (bovine GRK5; [10]) | GRK5 fold (increase in potency relative to paroxetine) (GRK5 [5]) | ΔTm at 10 µM (human GRK2S670A; [11]) | GRK1 fold (increase in potency relative to paroxetine) (GRK1 [3]) | Ssel (GRK1, 2, and 5 and PKA) | other results
1 | CN(c1ccc(NC(=O)Nc2ccc(OC(F)(F)F)cc2)cc1)c1ccnc(Nc2cccc(S(N)(=O)=O)c2)n1 [GW806742X] | 20.3 °C | 0.4 °C | > 1000 µM | > 1000 µM | > 501 µM | 45.6 °C | 0.2 °C | 6.5 °C | 16 | 36.4 °C | –1.1 °C | > 1000 µM | 27.1 °C | 0.4 °C | – | – | – | – | – | 1.386 | inhibition pattern in kinase cross-screening, in words (224 kinases): strong inhibition of many of the 221 kinases evaluated; ΔTm at 10 µM (bovine GRK5; read-out: ΔTm, primary screen, GRK5, 10 μM compound, 2 μM kinase, relative to DMSO control): 6.48 °C
2 | CC1=C(C(=O)Nc2ccc3[nH]ncc3c2)C(c2ccc(Cl)c(Cl)c2)CC(=O)N1 (stereo not shown) [GSK299115A] | 23.4 °C | 3.5 °C | 3.16 µM | > 1000 µM | 63.1 µM | 49.5 °C | 4.1 °C | – | – | 48.3 °C | 10.7 °C | – | 28.1 °C | 1.3 °C | 0.40 fold | 3.55 °C | 1.6 fold | 4.83 °C | – | 0.360 | IC50 (PKA; read-out: IC50 against PKA): < 100 µM; ΔTm, primary screen, GRK2 (human GRK2S670A; [11]): 4.8 °C; rank in the primary screen, GRK2 (human GRK2S670A; rank ordering of compounds in primary DSF screen): 4

Now from value to molecule, other results behind:

Row | GRK1 Tm (GRK1 [1]) | GRK1 ΔTm (GRK1 [1]) | IC50 (GRK2 [2]) | IC50 (GRK1 [3]; [7]) | IC50 (PKA; [8]) | PKA Tm (protein kinase A (PKA)) | PKA ΔTm (protein kinase A (PKA)) | ΔTm, primary screen, GRK5 (bovine GRK5; [9]) | rank in the primary screen, GRK5 (bovine GRK5; 10 μM compound) | GRK2 Tm (GRK2 [4]) | GRK2 ΔTm (GRK2 [4]) | IC50 (GRK5 [5]) | GRK5 Tm (GRK5 [6]) | GRK5 ΔTm (GRK5 [6]) | GRK2 fold (increase in potency relative to paroxetine) (GRK2 [2]) | ΔTm at 10 µM (bovine GRK5; [10]) | GRK5 fold (increase in potency relative to paroxetine) (GRK5 [5]) | ΔTm at 10 µM (human GRK2S670A; [11]) | GRK1 fold (increase in potency relative to paroxetine) (GRK1 [3]) | SMILES | Ssel (GRK1, 2, and 5 and PKA) | other results
3 | – | – | 7.94 µM | – | > 501 µM | 48.5 °C | 3.1 °C | – | – | 42.4 °C | 4.9 °C | – | 29.3 °C | 2.5 °C | – | 6.35 °C | – | 3.29 °C | – | CCCN1CCC(c2ccc(Nc3nc(Nc4cc(F)ccc4C(N)=O)c4cc[nH]c4n3)c(OC)c2)CC1 [GSK1326255A] | 0.586 | IC50 (GRK1 [3]): 501 µM
4 | 18.5 °C | –1.4 °C | 20 µM | 0.631 µM | > 501 µM | 46.6 °C | 1.2 °C | 8.3 °C | 7 | 40.6 °C | 3.0 °C | 3.16 µM | 32.6 °C | 5.8 °C | 0.063 fold | 8.36 °C | 40 fold | – | 631 fold | COc1cc2c(cc1Nc1nc(Nc3ccsc3C(N)=O)c3cc[nH]c3n1)N(C(=O)CN(C)C)CCC2 [GSK2110236A] | 0.561 | selectivity for GRK5 over GRK2 (GRK5 [5]; from IC50 values of Table 2): 6 fold
5 | 28.6 °C | 8.7 °C | 200 µM | 10 µM | > 501 µM | 45.4 °C | 0.0 °C | 6.9 °C | 13 | 38.8 °C | 1.2 °C | 6.31 µM | 30.5 °C | 3.8 °C | 0.0063 fold | 6.87 °C | 20 fold | – | 40 fold | CNC(=O)c1ncccc1Nc1nc(Nc2cc3c(cc2OC)CCCN3C(=O)CN(C)C)nc2[nH]ccc12 [GSK2220400A] | 0.770 | lower potency against GRK1 (GRK1 [3]; relative to GSK2163632A): 100 fold
